Experimental data: PMC5676206, “Biosynthesis of methyl-proline containing griselimycins, natural products with anti-tuberculosis activity” (Chemical Science, 2017)

Experiments:
GriF = target: T1, GriF (Streptomyces muensis, UniProt A0A0E3URI1); test: LC-MS of product; format: biochemical; details: NAD+, ZnSO4; product cyclizes to the pyrroline
T1 construct: recombinant, produced in E. coli
T1 sequence (A0A0E3URI1 1-391): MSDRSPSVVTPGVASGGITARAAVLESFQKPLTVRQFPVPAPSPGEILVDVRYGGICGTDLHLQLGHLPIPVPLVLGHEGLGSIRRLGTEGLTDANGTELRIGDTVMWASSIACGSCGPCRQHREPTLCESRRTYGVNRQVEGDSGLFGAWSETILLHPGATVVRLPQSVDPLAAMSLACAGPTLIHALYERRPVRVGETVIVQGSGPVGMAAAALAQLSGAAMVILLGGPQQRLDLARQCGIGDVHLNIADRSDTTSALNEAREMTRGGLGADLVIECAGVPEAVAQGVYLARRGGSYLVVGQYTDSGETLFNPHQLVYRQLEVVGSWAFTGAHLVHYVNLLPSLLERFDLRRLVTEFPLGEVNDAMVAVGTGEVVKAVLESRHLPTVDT

GriE = target: T2, GriE (Streptomyces muensis, UniProt A0A0E3URV8); test: X-ray crystallography; format: binding
T2 construct: recombinant, produced in E. coli
T2 sequence (A0A0E3URV8 1-270): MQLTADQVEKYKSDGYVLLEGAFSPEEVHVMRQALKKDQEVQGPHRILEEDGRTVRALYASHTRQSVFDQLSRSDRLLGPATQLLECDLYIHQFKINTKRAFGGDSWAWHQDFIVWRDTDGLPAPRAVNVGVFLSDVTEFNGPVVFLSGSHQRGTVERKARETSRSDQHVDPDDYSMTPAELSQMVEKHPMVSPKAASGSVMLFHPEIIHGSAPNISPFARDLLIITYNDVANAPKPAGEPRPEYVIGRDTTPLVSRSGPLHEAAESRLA

[1] = co-crystallized with Mn2+, L-leucine and alpha-ketoglutarate, turned over in the crystal set-up, 1.53 Å

Row | Structure (SMILES) | LC-MS of product (GriF) | X-ray crystallography (GriE; [1]) | X-ray crystallography (GriE; co-crystallized with Co2+ in place of Fe2+ and alpha-ketoglutarate, 1.76 Å, active site, no direct metal contact)
1 | C[C@@H](CO)C[C@H](N)C(=O)O [(2S,4R)-5-hydroxyleucine] | incubation of recombinant GriF with 5-hydroxyleucine, ZnSO4 and NAD^+ was unstable | electron density clearly confirms 5-hydroxyleucine to be the postulated (2S,4R)-diastereomer | 
2 | CC(C)C[C@H](N)C(=O)O [L-leucine] |  |  | unambiguously revealed bound metal and both L-leucine and α-ketoglutarate
3 | O=C(O)CCC(=O)O [succinate] |  | succinate coordinates the metal with one carboxylate oxygen | 
